Test results as given in PubChem BioAssay AID2060506 (Molecular Pharmacology Branch, DTP, NCI, 2025).
pIC50: −log10 of the molar value.

Test system: 598228-144-R-J1-PDC complex spheroid viability
Test: Anticancer human tumor 598228-144-R-J1-PDC patient-derived serous endometrial adenocarcinoma cell line growth inhibition [GQUAD]
Settings: for pIC50: curve of first compound; for viability, T/C: stronger effect = lower value
Excerpt: DNA G-quadruplex Stabilizer Agents in Combinations in Complex Spheroids
A high-throughput screen of multi-cell type tumor spheroids was designed to identify active combinations of DNA G-quadruplex stabilizer agents and targeted small molecules. Complex spheroids include a stromal component modeled by human endothelial cells (HUVEC) and fibroblasts modeled by human mesenchymal stem cells (MSCs). The concentration ranges selected for each drug and investigational agent were based upon clinically achievable concentrations if the clinical Cmax of the agent was known.
Compounds. The drugs and investigational agents: pidnarulex (CX-5461; NSC782164), APTO-253 (NSC789042), BRACO-19 (NSC847499), peposertib (NSC802822), ceralasertib (NSC780249), elimusertib (NSC800525), camonsertib (NSC841442), AZD-1390 (NSC803789), olaparib (NSC753686), talazoparib (NSC767125), ART-558 (NSC835418), sotorasib (NSC818433), MRTX-1133 (NSC836407), SN-38 (NSC673596), topotecan (NSC609699), etoposide (NSC141540), doxorubicin (NSC123127), gemcitabine (NSC613327), 5-fluorouracil (NSC19893), paclitaxel (NSC125973), vemurafenib (NSC761431), panobinostat (NSC761190), R-306465 (JNJ-16241199; NSC773264), adavosertib (NSC754352), TP-3654 (NSC805149), carboplatin (NSC241240), KSQ-4279 (NSC840948), and staurosporine (NSC755774) were obtained from the National Cancer Institute (NCI) Developmental Therapeutics Program Chemical Repository (34). The FDA-approved anticancer drug set is available from the NCI Developmental Therapeutics Program. […] The stock solutions were prepared in dimethyl sulfoxide (DMSO, Sigma-Aldrich, St. Louis, MO, cat. D2650) at 800-fold the tested concentration and stored at -70 degrees C prior to their use. All drugs and investigational agents were tested over a range starting from a high concentration at or near the clinical Cmax and decreasing in half-log increments. If the clinical Cmax for an agent had not been determined, the highest concentration tested was 10 microM.
2.3 Cell Culture. All cells were maintained in an incubator at 37 degrees C and 5% CO2 with 95% humidity. The PDC lines were cultured according to standard operating procedures established by the NCI PDMR. All PDCs were thawed and cultured in Matrigel-coated flasks prepared with a working solution of 1X Ham's F-12 nutrient mix, without supplementation (Invitrogen, cat. 11765054), 100 U/mL penicillin-streptomycin (Invitrogen, cat. 15140122), and 2.5% Matrigel (Corning Inc., cat. 354248) for the first three passages. The 857933-349-R-J2-PDC line was cultured in 6C/Colon 1B media, which includes advanced DMEM/F-12 (Thermo Fisher Scientific, cat. 12634028), 10 mM HEPES (Thermo Fisher Scientific, cat. 15630080), 1X GlutaMAX supplement (Thermo Fisher Scientific, cat. 35050061), 0.1 mg/mL primocin (InvivoGen, cat. ant-pm-2), 10% defined fetal bovine serum, heat inactivated (HyClone Laboratories Inc., cat. SH30070.03HI), 50% L-WRN conditioned media (ATCC, cat. CRL-3276), 1.25 mM N-Acetyl-L-cysteine (Sigma-Aldrich, cat. A9165), 10 mM nicotinamide (Sigma-Aldrich, cat. N0636), 1X B-27 supplement (Thermo Fisher Scientific, cat. 17504044), 1X N-2 supplement (Thermo Fisher Scientific, cat. 17502048), 10 microM Y-27632 dihydrochloride (Tocris Bioscience, cat. 1254), and 50 ng/mL human EGF recombinant protein (Thermo Fisher Scientific, cat. PHG0311). The 485176-168-R4-J1-PDC line was cultured in Panc media, which includes all 6C/Colon 1B media components plus 100 ng/mL human FGF-10 (Thermo Fisher Scientific, cat. 100-26), 500 nM SB-431542 (Selleckchem, cat. S1067), and gastrin (Tocris, cat. 3006).
[…]

[1] = second compound 0.0316 µM, first compound 0.0316 µM
[2] = second compound 0.0316 µM, first compound 0.316 µM
[3] = second compound 0.1 µM, first compound 0.0316 µM
[4] = second compound 0.1 µM, first compound 0.316 µM
[5] = second compound 0.316 µM, first compound 0.0316 µM
[6] = second compound 0.316 µM, first compound 0.316 µM
[7] = second compound 1 µM, first compound 0.0316 µM
[8] = second compound 1 µM, first compound 0.316 µM
[9] = second compound 3.16 µM, first compound 0.0316 µM
[10] = second compound 3.16 µM, first compound 0.316 µM
[11] = second compound 10 µM, first compound 0.0316 µM
[12] = second compound 10 µM, first compound 0.316 µM
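Also: spheroids exposed to the agents for one week before reading.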
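For viability, T/C in this document: percent of vehicle DMSO control viability so 100% = untreated growth.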

CC1COCCN1c1cc(C2(O)CC3CCC(C2)O3)c2cnn(-c3ccn[nH]3)c2n1 (centres undefined) + Cc1cnc(CNC(=O)c2c(=O)c3ccc(N4CCCN(C)CC4)nc3n3c2sc2ccccc23)cn1
pIC50 (second compound 0.0316 µM): 7.37 | pIC50 (second compound 0.1 µM): > 7.50 | pIC50 (second compound 0.316 µM): > 7.50 | pIC50 (second compound 1 µM): > 7.50 | pIC50 (second compound 3.16 µM): > 7.50 | pIC50 (second compound 10 µM): > 7.50 | viability, T/C [1]: 59.9% | viability, T/C (second compound 0.0316 µM, first compound 0.1 µM): 31.8% | viability, T/C [2]: 35.8% | viability, T/C (second compound 0.0316 µM, first compound 1 µM): 36.6% | viability, T/C (second compound 0.0316 µM, first compound 3.16 µM): 22.5% | viability, T/C (second compound 0.0316 µM, first compound 10 µM): 9.67% | viability, T/C [3]: 46% | viability, T/C (second compound 0.1 µM, first compound 0.1 µM): 38% | viability, T/C [4]: 32.8% | viability, T/C (second compound 0.1 µM, first compound 1 µM): 34.7% | viability, T/C (second compound 0.1 µM, first compound 3.16 µM): 19.8% | viability, T/C (second compound 0.1 µM, first compound 10 µM): 9.84% | viability, T/C [5]: 41% | viability, T/C (second compound 0.316 µM, first compound 0.1 µM): 39.7% | viability, T/C [6]: 33% | viability, T/C (second compound 0.316 µM, first compound 1 µM): 36.4% | viability, T/C (second compound 0.316 µM, first compound 3.16 µM): 20.9% | viability, T/C (second compound 0.316 µM, first compound 10 µM): 7.21% | viability, T/C [7]: 44.6% | viability, T/C (second compound 1 µM, first compound 0.1 µM): 41.9% | viability, T/C [8]: 35.9% | viability, T/C (second compound 1 µM, first compound 1 µM): 24% | viability, T/C (second compound 1 µM, first compound 3.16 µM): 12.7% | viability, T/C (second compound 1 µM, first compound 10 µM): 4.57% | viability, T/C [9]: 34.8% | viability, T/C (second compound 3.16 µM, first compound 0.1 µM): 37.9% | viability, T/C [10]: 25.5% | viability, T/C (second compound 3.16 µM, first compound 1 µM): 7.29% | viability, T/C (second compound 3.16 µM, first compound 3.16 µM): 0.25% | viability, T/C (second compound 3.16 µM, first compound 10 µM): 0.64% | viability, T/C [11]: 14.6% | viability, T/C (second compound 10 µM, first compound 0.1 µM): 0.4% | viability, T/C [12]: 0.37% | viability, T/C (second compound 10 µM, first compound 1 µM): 0.29% | viability, T/C (second compound 10 µM, first compound 3.16 µM): 0.34% | viability, T/C (second compound 10 µM, first compound 10 µM): 0.24%

Cn1ncnc1[C@H]1c2n[nH]c(=O)c3cc(F)cc(c23)N[C@@H]1c1ccc(F)cc1 + Cc1cnc(CNC(=O)c2c(=O)c3ccc(N4CCCN(C)CC4)nc3n3c2sc2ccccc23)cn1
pIC50 (second compound 0.0316 µM): < 6.50 | pIC50 (second compound 0.1 µM): < 6.50 | pIC50 (second compound 0.316 µM): < 6.50 | pIC50 (second compound 1 µM): < 6.50 | pIC50 (second compound 3.16 µM): 6.71 | pIC50 (second compound 10 µM): 9.00 | viability, T/C (second compound 0.0316 µM, first compound 0.000999 µM): 81.7% | viability, T/C (second compound 0.0316 µM, first compound 0.00316 µM): 94% | viability, T/C (second compound 0.0316 µM, first compound 0.00999 µM): 87.3% | viability, T/C [1]: 68.3% | viability, T/C (second compound 0.0316 µM, first compound 0.0999 µM): 74.4% | viability, T/C [2]: 54.7% | viability, T/C (second compound 0.1 µM, first compound 0.000999 µM): 79.1% | viability, T/C (second compound 0.1 µM, first compound 0.00316 µM): 70.3% | viability, T/C (second compound 0.1 µM, first compound 0.00999 µM): 61.2% | viability, T/C [3]: 56.4% | viability, T/C (second compound 0.1 µM, first compound 0.0999 µM): 60.3% | viability, T/C [4]: 63.1% | viability, T/C (second compound 0.316 µM, first compound 0.000999 µM): 66.3% | viability, T/C (second compound 0.316 µM, first compound 0.00316 µM): 76.4% | viability, T/C (second compound 0.316 µM, first compound 0.00999 µM): 56.8% | viability, T/C [5]: 55.9% | viability, T/C (second compound 0.316 µM, first compound 0.0999 µM): 59% | viability, T/C [6]: 55.1% | viability, T/C (second compound 1 µM, first compound 0.000999 µM): 55.5% | viability, T/C (second compound 1 µM, first compound 0.00316 µM): 54.3% | viability, T/C (second compound 1 µM, first compound 0.00999 µM): 56% | viability, T/C [7]: 64.2% | viability, T/C (second compound 1 µM, first compound 0.0999 µM): 59.3% | viability, T/C [8]: 64.1% | viability, T/C (second compound 3.16 µM, first compound 0.000999 µM): 57.5% | viability, T/C (second compound 3.16 µM, first compound 0.00316 µM): 53.8% | viability, T/C (second compound 3.16 µM, first compound 0.00999 µM): 52.9% | viability, T/C [9]: 58.5% | viability, T/C (second compound 3.16 µM, first compound 0.0999 µM): 57% | viability, T/C [10]: 42% | viability, T/C (second compound 10 µM, first compound 0.000999 µM): 40.5% | viability, T/C (second compound 10 µM, first compound 0.00316 µM): 45.7% | viability, T/C (second compound 10 µM, first compound 0.00999 µM): 59.1% | viability, T/C [11]: 38.1% | viability, T/C (second compound 10 µM, first compound 0.0999 µM): 51.7% | viability, T/C [12]: 32.5%
